Reference: US6703362B1, “Random peptides that bind to gastro-intestinal tract (GIT) transport receptors and related methods” (Cytogen Corporation, priority 1997, dated 2004)
Values belong to the substance of their own block, whether it stands above or below them. * marks the point of attachment. Dansyl = CN(C)c1cccc2c(S(=O)(=O)*)cccc12

Key:
fixed Caco-2 cells [1] = experiment: Inhibition of GST-peptide fusion binding to fixed Caco-2 cells by synthetic peptides; conditions: peptide from 100 μg/ml serially diluted; GST fusion 10 μg
Excerpt: Caco-2 cells were fixed, treated with phenylhydrazine and blocked as described above. […] GST-PAX2 binding was inhibited by ZElan032, ZElan033, and ZElan035.

[2] = test system: P100 fractions harvested from Caco-2 cells; experiment: Binding of dansylated peptides to P100 fractions and peptide/particle correlation; conditions: initial assay
Protocol: Caco-2 cell membrane (P100) and cytosolic (S100) fractions were prepared using a modification of the method described in Kinsella, B. T., O'Mahony, D. J. and G. A. FitzGerald, 1994, J. Biol. Chem. 269(47): 29914-29919. Confluent Caco-2 cell monolayers (grown in 75 cm^2 flasks for up to 1 week at 37° C. and 5% CO2) were washed twice in Dulbecco's PBS (DPBS) and the cells were harvested by centrifugation at 1000 rpm after treatment with 10 mM EDTA-DPBS. The cells were washed 3 times in DPBS and the final cell pellet was resuspended in 3 volumes of ice cold HED buffer (20 mM HEPES (pH 7.67), 1 mM EGTA, 0.5 mM dithiothreitol, 1 mM phenylmethylsulphonyl fluoride (PMSF)). The cells were allowed to swell for 5 min on ice prior to homogenization for 30 sec. The homogenates were centrifuged at 40,000 rpm for 45 min at 4° C. The supernatant (S100) was removed and the pellet (P100) was resuspended in HEDG buffer (20 mM HEPES (pH 7.67), 1 mM EGTA, 0.5 mM dithiothreitol, 100 mM NaCl, 10% glycerol, 1 mM PMSF). Protein concentrations were determined using the Bradford assay (Bradford, M. M., 1976, Anal. Biochem. 72: 248-254).
Binding of peptide and/or peptide-coated PLGA particles to membrane (P100) and cytosolic (S100) fractions was assessed by detection of the dansyl moiety incorporated in the peptide. Costar ninety six well ELISA plates were coated with S100 and P100 fractions (100 μg/ml in 0.05 M NaHCO3) overnight at 4° C. The plates were blocked with 0.5% bovine serum albumin in DPBS for 1 h at room temperature and washed 3 times in 1% BSA-DPBS. […] After washing 3 times in 1% BSA-DPBS 100 μl of TMB substrate (3,3′,5′,5-tetramethylbenzidine; Microwell Peroxidase Substrate System (Kirkegaard and Perry Laboratories 50-76-00)) was added and the optical density was measured at 650 nm at various time intervals.
Binding of dansylated peptides to P100 fractions was assessed to determine if peptide binding was predictive of peptide-coated particle binding.

[3] = test system: P100 membrane fractions derived from Caco-2 cells; experiment: Dansylated peptide ELISA: relative binding of PAX2 and HAX42 peptides to P100 (ratio to ZElan021); conditions: HAX42 peptides, ratio to ZElan021 = 1.00
In short: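 P100 membrane fraction from Caco-2 cells (normally 100 μg/ml) coated in carbonate buffer pH9.6, blocked with 2% Marvel/PBS, then incubated with dansylated peptides. Detection via anti-mouse HRP conjugate and TMB, OD read at 650nm; binding expressed relative to ZElan021.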

BSA = BSA (Bos taurus, UniProt P02769); experiment: Phage ELISA on BSA (background control protein); type: binding
BSA, sequence (P02769 25-607): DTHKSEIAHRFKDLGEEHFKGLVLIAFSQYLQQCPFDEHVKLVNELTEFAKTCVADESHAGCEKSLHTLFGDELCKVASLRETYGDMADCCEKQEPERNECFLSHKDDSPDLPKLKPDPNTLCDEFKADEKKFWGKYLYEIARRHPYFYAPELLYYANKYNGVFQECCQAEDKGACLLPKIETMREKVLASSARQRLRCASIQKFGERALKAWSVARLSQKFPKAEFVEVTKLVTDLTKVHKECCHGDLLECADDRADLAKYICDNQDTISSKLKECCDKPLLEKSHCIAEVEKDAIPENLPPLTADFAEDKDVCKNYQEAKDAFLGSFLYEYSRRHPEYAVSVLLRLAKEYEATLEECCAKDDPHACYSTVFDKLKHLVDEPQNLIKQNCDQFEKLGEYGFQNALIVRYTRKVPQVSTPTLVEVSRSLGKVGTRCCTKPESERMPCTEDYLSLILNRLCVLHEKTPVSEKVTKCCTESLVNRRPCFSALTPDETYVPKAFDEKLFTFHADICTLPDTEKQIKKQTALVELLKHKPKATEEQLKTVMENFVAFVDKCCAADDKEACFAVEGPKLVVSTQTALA
Protocol: (§1) 96 well plates were coated overnight with GIT receptor, BSA and, optionally, IDE (insulin degrading enzyme, an irrelevant His-fusion protein)or hTF. The plates were 5 blocked for one hour with 0.5% BSA-PBS. After clarification, the amplified phage were diluted 1:100 in […] plus 0.05% Tween 20 in PBS and added to the plates. Following incubation of the plates on a rotator for 1 to 2 hours, the plates were washed 5 times with 1% BSA plus 0.05% Tween 20 in PBS. Dilute anti-M13-HRP conjugate (anti-M13 antibody linked to horse radish peroxidase (HRP)) was added to all the wells and the plate was incubated for one hour on a rotator. After the plates were washed 5 times, as described above, TMB substrate was added to the wells. The plates were read at 650 nm absorbance.

intestinal tissue = experiment: Preselected phage libraries, rat closed loop: absorption/internalization to intestinal tissue (hybridization autoradiograph); type: in vivo; conditions: for binding to the intestine / found in the intestine samples: hPEPT1 pool of phages; for found in the intestinal samples fractions: D2H pool of phages
hPEPT1 = target: T1, hPEPT1 (Homo sapiens, UniProt P46059); experiment: Phage receptor ELISA on hPEPT1; type: binding; conditions: for OD, binding to hPEPT1: Table 4, phage panned on hPEPT1; for PEPT1/BSA: ratio of hPEPT1 to BSA binding
T1 construct: 391-571; made in house
T1 sequence (P46059 391-571): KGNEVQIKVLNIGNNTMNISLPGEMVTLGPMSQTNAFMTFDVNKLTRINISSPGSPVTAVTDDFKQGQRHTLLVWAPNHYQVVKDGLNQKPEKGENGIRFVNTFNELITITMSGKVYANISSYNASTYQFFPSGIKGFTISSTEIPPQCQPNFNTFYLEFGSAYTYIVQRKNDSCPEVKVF
Protocol: as §1

[4] = Isoelectric points of synthetic peptides; type: physicochemical
hSI = target: T2, hSI (Homo sapiens, UniProt P14410); experiment: Phage receptor ELISA on hSI; type: binding; conditions: for OD, binding to hSI: Table 1, phage panned on hSI, absorbance 650 nm; for hSI/BSA: ratio of hSI to BSA binding
T2 construct: made in house
T2 sequence (P14410 272-667): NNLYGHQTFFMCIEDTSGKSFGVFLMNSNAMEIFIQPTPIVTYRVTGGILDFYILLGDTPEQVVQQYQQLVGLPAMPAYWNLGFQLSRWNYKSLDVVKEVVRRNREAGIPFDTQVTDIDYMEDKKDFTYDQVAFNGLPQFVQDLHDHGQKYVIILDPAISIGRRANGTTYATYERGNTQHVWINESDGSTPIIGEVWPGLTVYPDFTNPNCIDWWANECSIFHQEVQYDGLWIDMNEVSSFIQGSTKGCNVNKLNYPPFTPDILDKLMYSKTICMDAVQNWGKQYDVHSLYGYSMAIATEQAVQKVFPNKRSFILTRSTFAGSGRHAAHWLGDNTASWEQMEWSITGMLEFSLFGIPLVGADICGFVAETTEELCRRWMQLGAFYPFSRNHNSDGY
Protocol: as §1

D2H = target: T3, D2H (Homo sapiens, UniProt Q07837); experiment: Phage receptor ELISA on D2H; type: binding; conditions: Table 3; for D2H/BSA: ratio of D2H to BSA binding; for OD, binding to D2H: two rounds on D2H, third pan on Caco-2 snapwells
T3 construct: 387-685; made in house
T3 sequence (Q07837 387-685): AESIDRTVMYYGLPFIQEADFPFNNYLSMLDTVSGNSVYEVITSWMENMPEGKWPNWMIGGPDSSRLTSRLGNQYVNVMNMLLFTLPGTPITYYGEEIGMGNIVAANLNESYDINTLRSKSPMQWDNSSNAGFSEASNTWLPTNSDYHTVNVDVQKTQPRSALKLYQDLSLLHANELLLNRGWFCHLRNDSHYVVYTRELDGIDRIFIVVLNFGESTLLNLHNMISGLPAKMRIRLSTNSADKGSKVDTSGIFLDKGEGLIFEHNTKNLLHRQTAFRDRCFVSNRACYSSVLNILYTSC
Protocol: as §1

[5] = test system: P100 membrane fraction derived from Caco-2 cells; experiment: GST-PAX2 peptides relative binding to P100 fractions (ratio to GST-HAX42); conditions: 20 μg/ml GST-peptide; binding to plastic subtracted; GST-HAX42 = 1.00
Protocol: The peptides and proteins were analyzed by a dansylated peptide ELISA method in which 96 well plates were coated overnight at 4° C. with 100 μl/well coating protein (normally 100 μg/ml P100 membrane fraction) in 0.05M carbonate buffer pH9.6. Nonspecific binding was blocked using 200 μl/well, 2% Marvel/PBS for 2 hours at 37° C. prior to incubation with dansylated peptides. The plates were washed three times with PBS/0.05% Tween 20 and after each subsequent incubation step. […] A buffer blank control was included to ensure that background binding to plastic was not due to the antibodies used in the assay system. […] The plates were then incubated with an anti-mouse X-HRP conjugated antibody (Southern Biotech 1060-05) at a 1:10,000 dilution in blocking solution, 100 μl/well for 1 hour at room temperature. Plates were developed using 75 μl/well Bionostics TMB substrate and incubated for approximately 10 minutes. The developing reaction was stopped using Bionostics Red Stop solution (25 μl/well), and the optical density of the plates was read at 650nm.
After subtraction of the GST-peptide binding to plastic from P100 binding values, the binding of GST-PAX2 peptides were represented as a ratio of GST-HAX42 binding to P100, which was given the arbitrary value of 1.00. The following ratios were determined from binding to P100 of GST-peptides at a peptide concentration of 20 μg/ml. Bold denotes positive binding to the P100 membrane fraction.

[6] = test system: fixed Caco-2 or C2BBe1 cells; experiment: ELISA of GST fusion proteins on fixed Caco-2 or C2BBe1 cells; type: binding
Protocol: Fixed Caco-2, C2BBe1, and A431 cell plates were prepared by growing cells on tissue culture treated microtiter plates. When cells were confluent, plates were fixed with 10% formaldehyde, washed twice with PBS and stored with 0.5%BSA-PBS at −20° C. […] The standard ELISA procedure was followed at this point.
The standard ELISA procedure was modified as follows. GST proteins were diluted to an appropriate concentration in PBS containing lkBSA and 0.05% Tween20 (1%BPT), titered and incubated one hour at room temperature. Following five washes an anti-GST monoclonal antibody was added (Sigma, St. Louis Clone GST-2 diluted 1:10,000 in 1%BPT) and incubated one hour. After five more washes goat anti-mouse IgG2b-HRP was added (Southern Biotechnology Associates Inc., Birmingham, Ala., diluted 1:4000 in 1%BPT) and incubated one hour. After five washes plates were developed with TMB peroxidase substrate (Kirkegard and Perry, Gaithersburg, Md.). All data is presented with background binding subtracted.

[7] = test system: ZElan024 (P31), ZElan018 (PAX2), ZElan021 (HAX42); experiment: Crossreactive binding of GST fusions to dansylated peptides
fixed Caco-2 cells [8] = experiment: Effect of thrombin cleavage on binding of GST-peptide fusions to fixed Caco-2 cells; conditions: thrombin 18 h at room temperature
Protocol: Binding of intact and thrombin-cleaved GST-peptide fusions to fixed Caco-2 cells was compared.
Thirty micrograms of each GST-peptide was treated with bovine thrombin (1 μ/ml; 0.4 NIH units; Sigma CN.T9681) for 18 h at room temperature in 2OmM Tris-HCl pH8.0, 150 mM NaCl, 2.5 mM CaCl2. Controls were similarly treated without addition of thrombin. Ten micrograms of each GST-peptide fusion was removed for PAGE analysis, and 10 μg of fusions were added in duplicate to the fixed Caco-2 cells before 5-fold serial dilutions (1% BPT diluent). The fusions were allowed to bind for 1 h at room temperature. Following 6 washes with 1% BPT, binding was assayed by ELISA.

- OD, binding to BSA (BSA; Table 3): 0.063
- D2H/BSA (D2H): 3
- OD, binding to D2H (D2H): 0.163
- pI [4]: 11.03
Substance: RYKHDIGCDAGVDKKSSSVRGGCGAHSSPPRAGRGPRGTMVSRL [DCX8]
- found in the intestinal samples fractions (intestinal tissue): to a much lesser extent

- OD, binding to BSA (BSA; Table 4): 0.075
- binding to the intestine / found in the intestine samples (intestinal tissue): preferential binding
- OD, binding to hPEPT1 (hPEPT1): 0.807
- PEPT1/BSA (hPEPT1): 11
- pI [4]: 12.26
Substance: SARDSGPAEDGSRAVRLNGVENANTRKSSRSNPRGRRHP [Peptide P31]

- OD, binding to BSA (BSA; Table 3): 0.071
- D2H/BSA (D2H): 3
- OD, binding to D2H (D2H): 0.222
- pI [4]: 10.44
Substance: SQGSKQCMQYRTGRLTVGSEYGCGMNPARHATPAYPARLLPRYR [DCX11]
- found in the intestinal samples fractions (intestinal tissue): found in the intestinal samples fractions

More lines, now with the values behind:

Substance: H-K(Dansyl)SDHALGTNLRSDNAKEPGDYNCCGNGNSTGRKVFNRRRPSAIPT-NH2 (cysteines drawn unpaired) [ZElan021]
- inhibition of GST-HAX42 binding (fixed Caco-2 cells [1]): not inhibited
- binding of dansylated peptide to P100 compared to scrambled PAX2 control [2]: strong binding
- Binding value at 20 μg/ml [3]: 1.00
- Binding value at 25 μg/ml ([3]; first 25 μg/ml column): 1.00
- Binding value at 50 μg/ml ([3]; first 50 μg/ml column): 1.00
- Binding value at 25 μg/ml ([3]; second 25 μg/ml column): 1.00
- Binding value at 50 μg/ml ([3]; second 50 μg/ml column): 1.00
- Binding value at 25 μg/ml ([3]; third 25 μg/ml column): 1.00

Substance: RGSTGTAGGERSGVLNLHTRDNASGSGFKPWYPSNRGHK [Peptide 5PAX5]
- OD, binding to BSA (BSA; Table 4): 0.036
- binding to the intestine / found in the intestine samples (intestinal tissue): not found in the intestine samples
- OD, binding to hPEPT1 (hPEPT1): 0.15
- PEPT1/BSA (hPEPT1): 4
- pI [4]: 11.49

Substance: RVGQCTDSDVRRPWARSCAHQGCGAGTRNSHGCITRPLRQASAH [SNi10]
- OD, binding to BSA (BSA; Table 1, phage panned on hSI): 0.051
- OD, binding to hSI (hSI): 0.57
- hSI/BSA (hSI): 11
- pI [4]: 10.45

Substance: SPCGGSWGRFMQGGLFGGRTDGCGAHRNRTSASLEPPSSDY [SNi34]
- OD, binding to BSA (BSA; Table 1, phage panned on hSI): 0.115
- OD, binding to hSI (hSI): 0.761
- hSI/BSA (hSI): 7
- pI [4]: 8.25

Substance: gst-SDHALGTNLRSDNAKEPGDYNCCGNGNSTGRKVFNRRRPSAIPT [GST-HAX42]
- Value (binding to P100 as ratio of GST-HAX42 binding) [5]: 1.00
- binding to fixed Caco-2 or C2BBe1 cells relative to GST control [6]: weak to moderate binding
- crossreactivity to ZElan018 (PAX2) and ZElan021 (HAX42) ([7]; 5 μg/ml concentration used in competition assays): crossreactivity

Substance: gst-STPPSREAYSRPYSVDSDSDTNAKHSSHNRRLRTRSRPN [GST-PAX2]
- Value (binding to P100 as ratio of GST-HAX42 binding) [5]: 1.79
- binding to fixed Caco-2 or C2BBe1 cells relative to GST control [6]: bound fixed Caco-2 or C2BBe1 cells
- crossreactive binding to ZElan024 (P31) and ZElan018 (PAX2) ([7]; 0.5 μg/ml concentration used in competition assays): no crossreactive binding

Substance: gst-TNAKHSSHNRRLRTRSRPN [GST-PAX2.106]
- Value (binding to P100 as ratio of GST-HAX42 binding) [5]: 2.71
- binding of truncation to fixed Caco-2 cells relative to full-length fusion [6]: bound similarly to full-length PAX2
- effect of thrombin cleavage on detection of binding (fixed Caco-2 cells [8]): significantly reduced detection of binding
